Among the data in patent US11440913B2, “Aminoimidazopyridazines as kinase inhibitors” (BRISTOL-MYERS SQUIBB COMPANY, priority 2017, dated 2022) are IC50 values, retold here.

The IC50 is the concentration at which inhibition is half-maximal.

Counter-ions that a name gives are not always drawn. Like-named read-outs stand apart in the source and are kept apart here.

Test [1] concerns MLKL phosphorylation in HT29-L23 human colorectal adenocarcinoma cells. The test can be described thus: MLKL Phosphorylation High-Content Assay. Format: cell-based. The settings on record: 6 h, necroptosis induced with TNFα, SMAC mimetic and Z-VAD, read-out: pMLKL (IC50). The essentials: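 HT29-L23 cells pretreated 30 min at 37 °C with compound (6.25 to 0.106 μM final), then necroptosis induced with TNFα 35 ng/mL, SMAC mimetic 700 nM and Z-VAD 140 nM for 6 h. Fixed cells immunostained for MLKL pS358 and imaged; IC50 and Ymax from 4-parameter logistic fit.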

Test [2] concerns the target His-GST-TVMV-hRIPK1(1-324) (Homo sapiens (Human), UniProt Q13546). The test can be described thus: RIPK1 HTRF Binding Assay. The settings on record: HTRF binding, 1 h at rt; read-out: RIPK1 (IC50). The procedure, abridged: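 HTRF probe-displacement binding: 1 nM His-GST-TVMV-hRIPK1(1-324) (baculovirus construct), 90.6 nM probe, 0.2 nM anti-GST-Tb in 20 mM HEPES, 10 mM MgCl2, 0.015% Brij-35, 4 mM DTT, 0.05 mg/mL BSA. Incubated 1 h at rt; FRET 520/495 nm ratio, inhibition relative to DMSO-only wells.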
For orientation: In TR-FRET formats the signal depends on donor and acceptor labels being close together.

His-GST-TVMV-hRIPK1(1-324), sequence (Q13546 1-324): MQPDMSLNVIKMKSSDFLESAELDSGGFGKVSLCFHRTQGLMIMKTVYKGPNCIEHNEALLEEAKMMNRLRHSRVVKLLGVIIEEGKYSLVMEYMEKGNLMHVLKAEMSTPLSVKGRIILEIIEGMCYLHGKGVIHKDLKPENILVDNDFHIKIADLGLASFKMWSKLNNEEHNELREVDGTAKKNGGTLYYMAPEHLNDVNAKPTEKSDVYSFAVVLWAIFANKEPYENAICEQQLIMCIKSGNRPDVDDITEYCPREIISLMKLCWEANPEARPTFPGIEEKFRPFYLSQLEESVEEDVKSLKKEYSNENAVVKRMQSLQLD

As to `CC(=O)Nc1cn2nc(-c3cnc(C)c(C(=O)NCc4cc(F)ccc4OCC4CCCC4)c3)ccc2n1` [Example 218, N-{[2-(cyclopentylmethoxy)-5-fluorophenyl]methyl}-5-{2-acetamidoimidazo[1,2-b]pyridazin-6-yl}-2-methylpyridine-3-carboxamide], the IC50 in test [1] (Homo sapiens) was 15 nM; in test [2], 6 nM.

For `CC(=O)Nc1cn2nc(-c3cnc(C)c(C(=O)NCc4c(F)cccc4OCC4CCC4)c3)ccc2n1` [Example 219, N-{[2-(cyclobutylmethoxy)-6-fluorophenyl]methyl}-5-{2-acetamidoimidazo[1,2-b]pyridazin-6-yl}-2-methylpyridine-3-carboxamide], the results for the IC50 in test [1] (Homo sapiens) and in test [2] were 1 nM and 3 nM, respectively.

Consider `CC(=O)Nc1cn2nc(-c3cnc(C)c(C(=O)NCc4ccccc4OC(F)(F)F)c3)ccc2n1` [Example 220, 5-{2-acetamidoimidazo[1,2-b]pyridazin-6-yl}-2-methyl-N-{[2-(trifluoromethoxy)phenyl]methyl}pyridine-3-carboxamide], for which the IC50 in test [1] (Homo sapiens) is 406 nM; in test [2], 202 nM.

On to `CC(=O)Nc1cn2nc(-c3cnc(C)c(C(=O)NCc4cccc(OC(F)(F)F)c4)c3)ccc2n1` [Example 221, 5-{2-acetamidoimidazo[1,2-b]pyridazin-6-yl}-2-methyl-N-{[3-(trifluoromethoxy)phenyl]methyl}pyridine-3-carboxamide, TFA], for which the IC50 in test [1] (Homo sapiens) is 52 nM; in test [2], 49 nM.

Regarding `CC(=O)Nc1cn2nc(-c3cnc(C)c(C(=O)NCc4cc(F)ccc4OC4CCCC4)c3)ccc2n1` [Example 222, N-{[2-(cyclopentyloxy)-5-fluorophenyl]methyl}-5-{2-acetamidoimidazo[1,2-b]pyridazin-6-yl}-2-methylpyridine-3-carboxamide], the figures for the IC50 in test [1] (Homo sapiens) and in test [2] were 2 nM and 3 nM, respectively.

As to `CC(=O)Nc1cn2nc(-c3cnc(C)c(C(=O)NCc4c(F)cccc4OC4CCCC4)c3)ccc2n1` [Example 223, N-{[2-(cyclopentyloxy)-6-fluorophenyl]methyl}-5-{2-acetamidoimidazo[1,2-b]pyridazin-6-yl}-2-methylpyridine-3-carboxamide], the IC50 came to 3 nM in test [1] (Homo sapiens) and 4 nM in test [2].

On to `CC(=O)Nc1cn2nc(-c3cnc(C)c(C(=O)NCc4ccccc4OC4CCOC4)c3)ccc2n1` (centres unmarked) [Example 224, 5-{2-acetamidoimidazo[1,2-b]pyridazin-6-yl}-2-methyl-N-{[2-(oxolan-3-yloxy)phenyl]methyl}pyridine-3-carboxamide], for which the IC50 in test [1] (Homo sapiens) was 334 nM; in test [2], 157 nM.

For `CC(=O)Nc1cn2nc(-c3cnc(C)c(C(=O)NCc4ccccc4OC4CCCC4)c3)ccc2n1` [Example 225, N-{[2-(cyclopentyloxy)phenyl]methyl}-5-{2-acetamidoimidazo[1,2-b]pyridazin-6-yl}-2-methylpyridine-3-carboxamide], the IC50 in test [1] (Homo sapiens) turned out to be 3 nM; in test [2], 5 nM.

On to `CC(=O)Nc1cn2nc(-c3cnc(C)c(C(=O)NCc4c(F)cccc4OCC4CC4)c3)ccc2n1` [Example 226, N-{[2-(cyclopropylmethoxy)-6-fluorophenyl]methyl}-5-{2-acetamidoimidazo[1,2-b]pyridazin-6-yl}-2-methylpyridine-3-carboxamide], for which the IC50 in test [1] (Homo sapiens) was 3 nM; in test [2] it was 6 nM.

For `CC(=O)Nc1cn2nc(-c3cnc(C)c(C(=O)NCc4ccccc4OCC4CC4)c3)ccc2n1` [Example 227, N-{[2-(cyclopropylmethoxy)phenyl]methyl}-5-{2-acetamidoimidazo [1,2-b]pyridazin-6-yl}-2-methylpyridine-3-carboxamide], the IC50 in test [1] (Homo sapiens) stood at 21 nM; in test [2], 8 nM.

In the case of `CC(=O)Nc1cn2nc(-c3cc(C(=O)N[C@@H](C)c4cc(OC(F)(F)F)ccc4F)cnc3C)ccc2n1` [Example 228, 5-{2-acetamidoimidazo[1,2-b]pyridazin-6-yl}-N-[(1S)-1-[2-fluoro-5-(trifluoromethoxy)phenyl]ethyl]-6-methylpyridine-3-carboxamide], the IC50 in test [1] (Homo sapiens) turned out to be 193 nM; in test [2] it was 16 nM.

As to `[2H]C([2H])([2H])[C@@H](NC(=O)c1cnc(C)c(-c2ccc3nc(NC(C)=O)cn3n2)c1)c1cc(OC(F)(F)F)ccc1F` [Example 229, 5-{2-acetamidoimidazo[1,2-b]pyridazin-6-yl}-N-[(1R)-1-[2-fluoro-5-(trifluoromethoxy)phenyl] (2,2,2-deutero)ethyl]-6-methylpyridine-3-carboxamide], the IC50 in test [1] (Homo sapiens) was 436 nM; in test [2], 134 nM.

For `[2H]C([2H])(NC(=O)c1cnc(C)c(-c2ccc3nc(NC(C)=O)cn3n2)c1)c1cc(OC(F)(F)F)ccc1F` [Example 230, 5-{2-acetamidoimidazo[1,2-b]pyridazin-6-yl}-N-{[2-fluoro-5-(trifluoromethoxy)phenyl](deutero)methy 1}-6-methylpyridine-3-carboxamide], the IC50 in test [1] (Homo sapiens) turned out to be 90 nM; in test [2], 19 nM.

On to `CC(=O)Nc1cn2nc(-c3cc(C(=O)NCCC(C)c4ccccc4)cnc3C)ccc2n1` (centres unmarked) [Example 231, 5-{2-acetamidoimidazo[1,2-b]pyridazin-6-yl}-6-methyl-N-(3-phenylbutyl)pyridine-3-carboxamide], for which the figures for the IC50 in test [1] and in test [2] were 60 nM and 6 nM, respectively.

Turning to `CC(=O)Nc1cn2nc(-c3cc(C(=O)NCc4cccc(F)c4OCC4CC4)cnc3C)ccc2n1` [Example 232, N-{[2-(cyclopropylmethoxy)-3-fluorophenyl]methyl}-5-{2-acetamidoimidazo[1,2-b]pyridazin-6-yl}-6-methylpyridine-3-carboxamide], the IC50 in test [1] (Homo sapiens) and in test [2] was 4 nM each time.

`CC(=O)Nc1cn2nc(-c3cc(C(=O)NCc4ccccc4OC(F)(F)F)cnc3C)ccc2n1` [Example 233, 5-{2-acetamidoimidazo[1,2-b]pyridazin-6-yl}-6-methyl-N-{[2-(trifluoromethoxy)phenyl]methyl}pyridine-3-carboxamide]: the IC50 in test [1] (Homo sapiens) was 276 nM; in test [2], 38 nM.

On to `CC(=O)Nc1cn2nc(-c3cc(C(=O)NCc4cc(OC(F)(F)F)ccc4F)cnc3C)ccc2n1` [Example 234, 5-{2-acetamidoimidazo[1,2-b]pyridazin-6-yl}-N-{[2-fluoro-5-(trifluoromethoxy)phenyl]methyl}-6-methylpyridine-3-carboxamide], for which the IC50 in test [1] (Homo sapiens) turned out to be 71 nM; in test [2], 46 nM.

On to `CC(=O)Nc1cn2nc(-c3cncc(C(=O)N[C@H](C)c4cc(OC(F)(F)F)ccc4F)c3)ccc2n1` [Example 235, 5-{2-acetamidoimidazo[1,2-b]pyridazin-6-yl}-N-[(1R)-1-[2-fluoro-5-(trifluoromethoxy)phenyl]ethyl]pyridine-3-carboxamide], for which the values for the IC50 in test [1] (Homo sapiens) and in test [2] were 355 nM and 345 nM, respectively.

As for `CC(=O)Nc1cn2nc(-c3cncc(C(=O)NCc4cc(OCC5CC5)ccc4F)c3)ccc2n1` [Example 236, N-{[5-(cyclopropylmethoxy)-2-fluorophenyl]methyl}-5-{2-acetamidoimidazo[1,2-b]pyridazin-6-yl}pyridine-3-carboxamide], the IC50 in test [1] (Homo sapiens) stood at 180 nM; in test [2], 95 nM.

Consider `CC(=O)Nc1cn2nc(-c3cncc(C(=O)NCc4cc(OC(F)(F)F)ccc4F)c3)ccc2n1` [Example 237, 5-{2-acetamidoimidazo[1,2-b]pyridazin-6-yl}-N-{[2-fluoro-5-(trifluoromethoxy)phenyl]methyl} pyridine-3-carboxamide], for which the values for the IC50 in test [1] (Homo sapiens) and in test [2] were 77 nM and 45 nM, respectively.

In the case of `CC(=O)Nc1cn2nc(-c3cncc(C(=O)NCCC(C)c4ccccc4)c3)ccc2n1` (centres unmarked) [Example 238, 5-{2-acetamidoimidazo[1,2-b]pyridazin-6-yl}-N-(3-phenylbutyl) pyridine-3-carboxamide], the IC50 in test [1] (Homo sapiens) was found to be 356 nM; in test [2], 41 nM.

For `CC(=O)Nc1cn2nc(-c3cncc(C(=O)NCc4ccccc4OCC4CC4)c3)ccc2n1` [Example 239, N-{[2-(cyclopropylmethoxy)phenyl]methyl}-5-{2-acetamidoimidazo [1,2-b]pyridazin-6-yl}pyridine-3-carboxamide], the IC50 in test [1] (Homo sapiens) turned out to be 158 nM; in test [2], 13 nM.

On to `CC(=O)Nc1cn2nc(-c3cncc(C(=O)NCc4c(F)cccc4OC4CCCC4)c3)ccc2n1` [Example 240, N-{[2-(cyclopentyloxy)-6-fluorophenyl]methyl}-5-{2-acetamidoimidazo[1,2-b]pyridazin-6-yl}pyridine-3-carboxamide], for which the figures for the IC50 in test [1] (Homo sapiens) and in test [2] were 8 nM and 5 nM, respectively.

`CC(=O)Nc1cn2nc(-c3cncc(C(=O)NCc4ncccc4OC4CCCC4)c3)ccc2n1` [Example 241, N-{[3-(cyclopentyloxy)pyridin-2-yl]methyl}-5-{2-acetamidoimidazo [1,2-b]pyridazin-6-yl}pyridine-3-carboxamide]: the values for the IC50 in test [1] (Homo sapiens) and in test [2] were 277 nM and 35 nM, respectively.

For `CC(=O)Nc1cn2nc(-c3cncc(C(=O)NCc4cc(F)ccc4OC4CCCC4)c3)ccc2n1` [Example 242, N-{[2-(cyclopentyloxy)-5-fluorophenyl]methyl}-5-{2-acetamidoimidazo[1,2-b]pyridazin-6-yl}pyridine-3-carboxamide], the IC50 in test [1] (Homo sapiens) is 11 nM; in test [2], 4 nM.
